Measured values published in article PMC11480361, “Design of a Cereblon construct for crystallographic and biophysical studies of protein degraders” (Nature Communications, 2024).
Where “and” joins values, the source holds several entries; their conditions need not be identical. Equal entries are not always repeated.

Assays:
CRBN^midi [1] = target: T1, CRBN^midi (Homo sapiens, UniProt Q96SW2, C287N/C343E/C78I/DEL188-248/G302D/I92V/INS187GSG/K116N/L342R/L423I/Q134E/R283W/T359I/V293S); test: SEC-SAXS of CRBN^midi with binders (radius of gyration); details: for RG of ligand-bound CRBN^midi: 200 µM ligand, apo 26.73 Å; for Rg, P(r) Analysis from AUTOGNOM / dmax, P(r) analysis / Rg, Guinier analysis: Supplementary Table 3; for Rg, P(r) Analysis from AUTOGNOM: apo 26.91 ± 0.04; for dmax, P(r) analysis: apo 172.46; for Rg, Guinier analysis: binder 400 µM (mezigdomide, lenalidomide) or 200 µM (Boc-VcN, Boc-AcQ), apo 26.73 ± 0.06; as to Rg, Guinier analysis: values in Å; as to Rg, P(r) Analysis from AUTOGNOM: values in Å; as to dmax, P(r) analysis: values in Å
T1 construct: amino acids 41-187 followed by a Gly-Ser-Gly linker and amino acids 249-426; His6 (N, cleaved yes); made in house; host or cells: E. coli BL21(DE3)
Experimental: Frames from SEC-SAXS that corresponded to the main protein peak, were merged using Chromixs[61] and analyzed using the ATSAS (version 3.2.1) package. Radii of gyration and molecular mass were extrapolated from the Guinier plot using Primus. Pairwise-distance distributions were calculated using GNOM[63]. The dimensionless Kratky plot[49] was obtained by manually plotting (qRg)^2I(q)/I0 against qRg.
The open conformation model was obtained by homology modelling using the SWISS-MODEL webserver (accessed April 18th 2023)[65] with the cryo-EM structure of apo-CRBN (PDB ID: 8CVP)[25] as the input structure.

CRBN^midi [2] = target: T1, CRBN^midi; test: Thermal denaturation (turbidity, Prometheus Panta) of CRBN^midi +/- binders, Fig. 2f; type: binding; design: First derivative: unit not given here; details: for increase of Tm / denaturation temperature of CRBN^midi / melting temperature (Tm) of CRBN^midi in presence of binder: 100 µM binder; for increase of Tm / denaturation temperature of CRBN^midi: versus apo; for melting temperature (Tm) of CRBN^midi in presence of binder: apo Tm 44.5 °C; for First derivative: thermal denaturation trace
Experimental: Protein aggregation was assessed, and turbidity values were calculated by the PR.Panta control software (NanoTemper Technologies). First derivative curves were plotted using Prism software (GraphPad version 10).

[3] = T[°C] 86.7721 lenalidomide, 86.7698 Boc-VcN, 86.7691 Boc-AcQ
[4] = T[°C] 86.8918 lenalidomide, 86.8895 Boc-VcN, 86.8888 Boc-AcQ
[5] = T[°C] 87.0114 lenalidomide, 87.0091 Boc-VcN, 87.0084 Boc-AcQ
[6] = T[°C] 87.1311 lenalidomide, 87.1288 Boc-VcN, 87.1281 Boc-AcQ
[7] = T[°C] 87.2507 lenalidomide, 87.2484 Boc-VcN, 87.2477 Boc-AcQ
[8] = T[°C] 87.3704 lenalidomide, 87.3681 Boc-VcN, 87.3674 Boc-AcQ
[9] = T[°C] 87.49 lenalidomide, 87.4877 Boc-VcN, 87.487 Boc-AcQ
[10] = T[°C] 87.6097 lenalidomide, 87.6074 Boc-VcN, 87.6067 Boc-AcQ
[11] = T[°C] 87.7294 lenalidomide, 87.727 Boc-VcN, 87.7263 Boc-AcQ
[12] = T[°C] 87.849 lenalidomide, 87.8467 Boc-VcN, 87.846 Boc-AcQ
[13] = T[°C] 87.9687 lenalidomide, 87.9664 Boc-VcN, 87.9656 Boc-AcQ
[14] = T[°C] 88.0883 lenalidomide, 88.086 Boc-VcN, 88.0853 Boc-AcQ
[15] = T[°C] 88.208 lenalidomide, 88.2057 Boc-VcN, 88.205 Boc-AcQ
[16] = T[°C] 88.3276 lenalidomide, 88.3253 Boc-VcN, 88.3246 Boc-AcQ
[17] = T[°C] 88.4473 lenalidomide, 88.445 Boc-VcN, 88.4443 Boc-AcQ
[18] = T[°C] 88.567 lenalidomide, 88.5646 Boc-VcN, 88.5639 Boc-AcQ
[19] = T[°C] 88.6866 lenalidomide, 88.6843 Boc-VcN, 88.6836 Boc-AcQ
[20] = T[°C] 88.8063 lenalidomide, 88.8039 Boc-VcN, 88.8032 Boc-AcQ
[21] = T[°C] 88.9259 lenalidomide, 88.9236 Boc-VcN, 88.9229 Boc-AcQ
[22] = T[°C] 89.0456 lenalidomide, 89.0432 Boc-VcN, 89.0425 Boc-AcQ
[23] = T[°C] 89.1653 lenalidomide, 89.1629 Boc-VcN, 89.1622 Boc-AcQ
[24] = T[°C] 89.2849 lenalidomide, 89.2825 Boc-VcN, 89.2818 Boc-AcQ
[25] = T[°C] 89.4046 lenalidomide, 89.4022 Boc-VcN, 89.4015 Boc-AcQ
[26] = T[°C] 89.5242 lenalidomide, 89.5218 Boc-VcN, 89.5211 Boc-AcQ
[27] = T[°C] 89.6439 lenalidomide, 89.6415 Boc-VcN, 89.6408 Boc-AcQ
[28] = T[°C] 89.7635 lenalidomide, 89.7612 Boc-VcN, 89.7604 Boc-AcQ
[29] = T[°C] 89.8832 lenalidomide, 89.8808 Boc-VcN, 89.8801 Boc-AcQ
[30] = T[°C] 90.0028 lenalidomide, 90.0005 Boc-VcN, 89.9997 Boc-AcQ

T1 sequence (Q96SW2 with tags, fused parts or gaps with the stated changes limits assumed): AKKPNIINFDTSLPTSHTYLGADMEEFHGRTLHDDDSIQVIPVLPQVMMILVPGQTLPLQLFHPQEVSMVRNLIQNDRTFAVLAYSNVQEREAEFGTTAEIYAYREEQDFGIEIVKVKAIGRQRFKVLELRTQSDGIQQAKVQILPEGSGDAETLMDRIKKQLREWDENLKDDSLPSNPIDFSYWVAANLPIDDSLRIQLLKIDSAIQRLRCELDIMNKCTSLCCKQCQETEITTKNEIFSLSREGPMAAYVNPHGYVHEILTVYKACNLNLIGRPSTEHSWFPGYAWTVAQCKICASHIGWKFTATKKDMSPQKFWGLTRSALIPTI

| SMILES | RG of ligand-bound CRBN^midi (CRBN^midi [1]) | Rg, P(r) Analysis from AUTOGNOM (CRBN^midi [1]) | dmax, P(r) analysis (CRBN^midi [1]) | Rg, Guinier analysis (CRBN^midi [1]) | increase of Tm / denaturation temperature of CRBN^midi (CRBN^midi [2]) | melting temperature (Tm) of CRBN^midi in presence of binder (CRBN^midi [2]) | First derivative (CRBN^midi [2]; [3]) | First derivative (CRBN^midi [2]; [4]) | First derivative (CRBN^midi [2]; [5]) | First derivative (CRBN^midi [2]; [6]) | First derivative (CRBN^midi [2]; [7]) | First derivative (CRBN^midi [2]; [8]) | First derivative (CRBN^midi [2]; [9]) | First derivative (CRBN^midi [2]; [10]) | First derivative (CRBN^midi [2]; [11]) | First derivative (CRBN^midi [2]; [12]) | First derivative (CRBN^midi [2]; [13]) | First derivative (CRBN^midi [2]; [14]) | First derivative (CRBN^midi [2]; [15]) | First derivative (CRBN^midi [2]; [16]) | further results |
| --- | --- | --- | --- | --- | --- | --- | --- | --- | --- | --- | --- | --- | --- | --- | --- | --- | --- | --- | --- | --- | --- |
| C[C@H](NC(=O)OC(C)(C)C)C(=O)N[C@H]1CCC(=O)NC1=O [Boc-AcQ, tert-butyl ((S)-1-(((S)-2,6-dioxopiperidin-3-yl)amino)-1-oxopropan-2-yl)carbamate] | 24.29 Å and 24.3 Å | 24.25 ± 0.04 Å | 146.92 Å | 24.29 ± 0.05 Å | 8.3 °C | 52.8 °C | -0.02853 | -0.0315 | -0.03497 | -0.03881 | -0.04291 | -0.04716 | -0.05142 | -0.05268 | -0.05356 | -0.05436 | -0.05515 | -0.0559 | -0.05659 | -0.05718 | First derivative (CRBN^midi [2]; [17]): -0.05764; First derivative (CRBN^midi [2]; [18]): -0.05798; First derivative (CRBN^midi [2]; [19]): -0.05817; First derivative (CRBN^midi [2]; [20]): -0.05821; First derivative (CRBN^midi [2]; [21]): -0.0581; First derivative (CRBN^midi [2]; [22]): -0.05783; First derivative (CRBN^midi [2]; [23]): -0.05741; First derivative (CRBN^midi [2]; [24]): -0.05684; First derivative (CRBN^midi [2]; [25]): -0.05611; First derivative (CRBN^midi [2]; [26]): -0.05525; First derivative (CRBN^midi [2]; [27]): -0.05424; First derivative (CRBN^midi [2]; [28]): -0.05311; First derivative (CRBN^midi [2]; [29]): -0.05186; First derivative (CRBN^midi [2]; [30]): -0.0505 |
| CC(C)[C@H](NC(=O)OC(C)(C)C)C(=O)NC1CC(=O)NC1=O (stereo partly drawn) [Boc-VcN, Tert-butyl ((2S)-1-((2,5-dioxopyrrolidin-3-yl)amino)-3-methyl-1-oxobutan-2-yl)carbamate] | 23.41 Å and 23.4 Å | 22.93 ± 0.03 Å | 137.14 Å | 23.41 ± 0.05 Å | 11.1 °C | 55.6 °C | -0.05947 | -0.05823 | -0.05736 | -0.05707 | -0.05755 | -0.05896 | -0.06138 | -0.06805 | -0.07618 | -0.08482 | -0.09355 | -0.1023 | -0.1109 | -0.1196 | First derivative (CRBN^midi [2]; [17]): -0.1282; First derivative (CRBN^midi [2]; [18]): -0.1368; First derivative (CRBN^midi [2]; [19]): -0.1455; First derivative (CRBN^midi [2]; [20]): -0.1543; First derivative (CRBN^midi [2]; [21]): -0.1632; First derivative (CRBN^midi [2]; [22]): -0.1723; First derivative (CRBN^midi [2]; [23]): -0.1815; First derivative (CRBN^midi [2]; [24]): -0.191; First derivative (CRBN^midi [2]; [25]): -0.2007; First derivative (CRBN^midi [2]; [26]): -0.2106; First derivative (CRBN^midi [2]; [27]): -0.2208; First derivative (CRBN^midi [2]; [28]): -0.2313; First derivative (CRBN^midi [2]; [29]): -0.2421; First derivative (CRBN^midi [2]; [30]): -0.2531 |
| N#Cc1ccc(N2CCN(Cc3ccc(COc4cccc5c4CN([C@H]4CCC(=O)NC4=O)C5=O)cc3)CC2)c(F)c1 [mezigdomide, Mezigdomide] | – | 22.45 ± 0.04 Å | 145.02 Å | 22.79 ± 0.06 Å | – | – | – | – | – | – | – | – | – | – | – | – | – | – | – | – | – |
